Assay results published in ChEMBL document CHEMBL1134975, “3-Hydroxy-4-methyl-5-pentyl-2-iminopyrrolidine: a potent and highly selective inducible nitric oxide synthase inhibitor” (Bioorg Med Chem Lett, 2002).

Tests used:
Nitric oxide synthase 3 [1] = target: T1, Nitric oxide synthase 3 (Homo sapiens, UniProt P29474); assay: Inhibitory activity against Endothelial nitric oxide synthase
T1 sequence (P29474 whole entry): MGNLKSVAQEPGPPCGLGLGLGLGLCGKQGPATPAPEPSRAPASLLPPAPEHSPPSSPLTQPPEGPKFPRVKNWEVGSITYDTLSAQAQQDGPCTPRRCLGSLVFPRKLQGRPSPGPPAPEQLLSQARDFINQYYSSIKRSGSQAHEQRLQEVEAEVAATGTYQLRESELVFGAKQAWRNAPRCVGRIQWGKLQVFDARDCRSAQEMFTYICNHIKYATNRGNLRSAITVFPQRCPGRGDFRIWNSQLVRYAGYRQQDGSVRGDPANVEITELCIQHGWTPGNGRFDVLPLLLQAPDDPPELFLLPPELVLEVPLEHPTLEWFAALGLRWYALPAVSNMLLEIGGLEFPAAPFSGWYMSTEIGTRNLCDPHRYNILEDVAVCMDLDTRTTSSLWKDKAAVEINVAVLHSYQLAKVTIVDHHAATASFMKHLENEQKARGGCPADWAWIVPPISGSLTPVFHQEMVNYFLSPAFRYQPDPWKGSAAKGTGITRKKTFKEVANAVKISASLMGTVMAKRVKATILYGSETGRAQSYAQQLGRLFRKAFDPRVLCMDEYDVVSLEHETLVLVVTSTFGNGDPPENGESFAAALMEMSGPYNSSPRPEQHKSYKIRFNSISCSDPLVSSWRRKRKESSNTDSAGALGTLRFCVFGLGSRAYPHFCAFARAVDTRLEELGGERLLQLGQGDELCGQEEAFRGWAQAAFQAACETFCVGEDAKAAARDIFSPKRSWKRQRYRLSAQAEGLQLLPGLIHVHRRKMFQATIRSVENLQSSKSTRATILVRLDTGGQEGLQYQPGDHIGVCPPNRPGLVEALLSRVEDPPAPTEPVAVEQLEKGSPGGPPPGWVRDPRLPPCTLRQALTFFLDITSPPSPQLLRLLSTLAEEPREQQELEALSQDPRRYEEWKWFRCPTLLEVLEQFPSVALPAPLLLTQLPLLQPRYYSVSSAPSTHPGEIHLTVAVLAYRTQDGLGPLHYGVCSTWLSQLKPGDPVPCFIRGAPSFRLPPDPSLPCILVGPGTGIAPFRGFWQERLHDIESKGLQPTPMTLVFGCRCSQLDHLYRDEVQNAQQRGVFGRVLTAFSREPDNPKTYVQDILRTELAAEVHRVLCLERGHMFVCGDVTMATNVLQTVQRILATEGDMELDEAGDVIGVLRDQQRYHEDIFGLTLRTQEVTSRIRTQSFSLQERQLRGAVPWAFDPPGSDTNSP

Nitric oxide synthase 1 = Nitric oxide synthase 1 (Homo sapiens, UniProt P29475); assay: Inhibitory concentration against Neuronal nitric oxide synthase
[2] = target: Nitric oxide synthase, inducible (Homo sapiens, UniProt P35228); assay: Inhibitory concentration against Inducible nitric oxide synthase (iNOS)
Nitric oxide synthase 3 [3] = target: T1, Nitric oxide synthase 3; assay: Inhibitory concentration against Endothelial nitric oxide synthase

Sequence of Nitric oxide synthase, inducible (P35228 whole entry): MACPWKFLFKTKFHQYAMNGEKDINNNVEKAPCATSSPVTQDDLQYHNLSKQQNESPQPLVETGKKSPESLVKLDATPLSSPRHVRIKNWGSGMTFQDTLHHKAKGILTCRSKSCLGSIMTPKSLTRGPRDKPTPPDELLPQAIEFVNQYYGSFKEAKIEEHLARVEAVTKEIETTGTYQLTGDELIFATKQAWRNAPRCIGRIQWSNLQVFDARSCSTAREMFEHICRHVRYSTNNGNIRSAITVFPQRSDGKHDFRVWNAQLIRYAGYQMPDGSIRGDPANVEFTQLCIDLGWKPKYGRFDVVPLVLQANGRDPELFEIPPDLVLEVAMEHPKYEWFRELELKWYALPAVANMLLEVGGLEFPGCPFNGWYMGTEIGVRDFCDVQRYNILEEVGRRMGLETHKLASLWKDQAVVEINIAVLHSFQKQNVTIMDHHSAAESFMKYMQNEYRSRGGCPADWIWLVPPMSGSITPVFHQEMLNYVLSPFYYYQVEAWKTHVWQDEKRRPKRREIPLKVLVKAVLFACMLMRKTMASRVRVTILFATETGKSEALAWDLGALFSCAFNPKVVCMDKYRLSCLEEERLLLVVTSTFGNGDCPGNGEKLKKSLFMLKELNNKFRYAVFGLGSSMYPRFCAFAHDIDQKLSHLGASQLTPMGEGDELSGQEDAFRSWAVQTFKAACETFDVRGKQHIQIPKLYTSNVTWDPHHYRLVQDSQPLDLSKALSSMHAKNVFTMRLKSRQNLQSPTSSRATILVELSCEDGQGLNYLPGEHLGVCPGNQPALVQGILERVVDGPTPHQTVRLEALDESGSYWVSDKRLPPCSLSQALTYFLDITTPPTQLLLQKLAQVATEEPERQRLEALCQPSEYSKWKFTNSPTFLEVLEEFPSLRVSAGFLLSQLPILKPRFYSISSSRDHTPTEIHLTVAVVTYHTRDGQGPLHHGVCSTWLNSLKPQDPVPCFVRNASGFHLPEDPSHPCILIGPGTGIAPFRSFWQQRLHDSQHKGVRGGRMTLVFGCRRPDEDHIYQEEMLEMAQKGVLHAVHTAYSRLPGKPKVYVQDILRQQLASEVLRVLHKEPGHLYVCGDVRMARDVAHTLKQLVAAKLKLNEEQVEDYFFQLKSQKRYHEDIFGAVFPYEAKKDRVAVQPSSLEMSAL
Sequence of Nitric oxide synthase 1 (P29475 whole entry): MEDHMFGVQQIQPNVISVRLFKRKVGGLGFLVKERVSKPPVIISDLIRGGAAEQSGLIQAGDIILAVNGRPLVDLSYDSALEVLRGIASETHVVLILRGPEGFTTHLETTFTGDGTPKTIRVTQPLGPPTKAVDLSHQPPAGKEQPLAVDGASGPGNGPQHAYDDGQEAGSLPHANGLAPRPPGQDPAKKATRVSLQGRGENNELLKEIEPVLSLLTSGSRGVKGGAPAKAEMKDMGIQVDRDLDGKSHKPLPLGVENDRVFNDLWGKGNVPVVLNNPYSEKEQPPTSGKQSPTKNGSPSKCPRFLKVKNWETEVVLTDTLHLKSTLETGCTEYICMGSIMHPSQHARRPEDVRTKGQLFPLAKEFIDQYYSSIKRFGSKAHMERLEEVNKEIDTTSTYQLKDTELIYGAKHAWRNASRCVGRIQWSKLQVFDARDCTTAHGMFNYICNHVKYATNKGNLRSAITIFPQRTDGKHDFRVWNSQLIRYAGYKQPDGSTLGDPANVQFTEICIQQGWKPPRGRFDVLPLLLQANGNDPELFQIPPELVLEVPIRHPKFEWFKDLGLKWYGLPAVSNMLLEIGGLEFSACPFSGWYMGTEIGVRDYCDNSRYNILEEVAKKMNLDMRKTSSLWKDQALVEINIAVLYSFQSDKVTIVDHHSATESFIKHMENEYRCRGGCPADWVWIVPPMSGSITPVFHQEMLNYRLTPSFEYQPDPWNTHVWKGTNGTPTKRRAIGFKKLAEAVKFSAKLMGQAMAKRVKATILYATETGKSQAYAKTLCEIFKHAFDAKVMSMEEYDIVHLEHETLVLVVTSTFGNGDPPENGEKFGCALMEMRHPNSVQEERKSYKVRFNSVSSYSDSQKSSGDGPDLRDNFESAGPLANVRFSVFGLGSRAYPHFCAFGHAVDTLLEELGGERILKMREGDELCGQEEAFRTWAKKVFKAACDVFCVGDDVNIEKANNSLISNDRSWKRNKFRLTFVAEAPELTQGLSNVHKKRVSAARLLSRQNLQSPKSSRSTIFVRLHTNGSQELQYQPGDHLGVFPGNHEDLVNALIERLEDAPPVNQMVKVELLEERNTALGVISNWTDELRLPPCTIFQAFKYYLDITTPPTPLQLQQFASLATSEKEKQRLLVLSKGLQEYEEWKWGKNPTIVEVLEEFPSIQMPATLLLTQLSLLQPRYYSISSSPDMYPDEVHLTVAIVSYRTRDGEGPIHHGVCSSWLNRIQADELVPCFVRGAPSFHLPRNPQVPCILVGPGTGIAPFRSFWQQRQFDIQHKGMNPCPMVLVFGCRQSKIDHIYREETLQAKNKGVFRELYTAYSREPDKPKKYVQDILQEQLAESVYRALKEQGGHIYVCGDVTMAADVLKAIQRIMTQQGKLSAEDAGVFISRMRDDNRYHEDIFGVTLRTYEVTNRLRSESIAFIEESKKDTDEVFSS

| IC50 (Nitric oxide synthase 3 [1]) | IC50 (Nitric oxide synthase 1) | IC50 [2] | IC50 (Nitric oxide synthase 3 [3]) | Compound |
| --- | --- | --- | --- | --- |
| 1980 µM | 27 µM | 0.78 µM |  | CCCCC[C@H]1NC(=N)[C@@H](O)[C@H]1C |
| 578 µM | 21 µM | 4.5 µM |  | CCCCC[C@H]1NC(=N)C[C@H]1C (single isomer, unassigned) |

Continued, compound first:

| Compound | IC50 (Nitric oxide synthase 3 [1]) | IC50 (Nitric oxide synthase 1) | IC50 [2] | IC50 (Nitric oxide synthase 3 [3]) |
| --- | --- | --- | --- | --- |
| CCCCC[C@@H]1N=C(N)[C@H](O)[C@@H]1C |  | 49 µM | 2.8 µM | 2930 µM |
| CCCCC[C@H]1N=C(N)[C@H](O)[C@H]1C |  | 8.9 µM | 1.8 µM | 695 µM |
| CCCCC[C@H]1NC(=N)C[C@H]1C | 226 µM | 3.2 µM | 0.25 µM |  |
| CCCCC[C@@H]1N=C(N)[C@@H](O)[C@@H]1C |  | 20 µM | 1.8 µM | 930 µM |
